Columns and labels:
[1] = molecular target: Carboxylic ester hydrolase (Equus caballus, UniProt Q9N1N9); assay: AChE and BChE Inhibitory Activities
[2] = molecular target: Acetylcholinesterase (Electrophorus electricus, UniProt O42275); assay: AChE and BChE Inhibitory Activities
Sequence of Acetylcholinesterase (O42275 whole entry): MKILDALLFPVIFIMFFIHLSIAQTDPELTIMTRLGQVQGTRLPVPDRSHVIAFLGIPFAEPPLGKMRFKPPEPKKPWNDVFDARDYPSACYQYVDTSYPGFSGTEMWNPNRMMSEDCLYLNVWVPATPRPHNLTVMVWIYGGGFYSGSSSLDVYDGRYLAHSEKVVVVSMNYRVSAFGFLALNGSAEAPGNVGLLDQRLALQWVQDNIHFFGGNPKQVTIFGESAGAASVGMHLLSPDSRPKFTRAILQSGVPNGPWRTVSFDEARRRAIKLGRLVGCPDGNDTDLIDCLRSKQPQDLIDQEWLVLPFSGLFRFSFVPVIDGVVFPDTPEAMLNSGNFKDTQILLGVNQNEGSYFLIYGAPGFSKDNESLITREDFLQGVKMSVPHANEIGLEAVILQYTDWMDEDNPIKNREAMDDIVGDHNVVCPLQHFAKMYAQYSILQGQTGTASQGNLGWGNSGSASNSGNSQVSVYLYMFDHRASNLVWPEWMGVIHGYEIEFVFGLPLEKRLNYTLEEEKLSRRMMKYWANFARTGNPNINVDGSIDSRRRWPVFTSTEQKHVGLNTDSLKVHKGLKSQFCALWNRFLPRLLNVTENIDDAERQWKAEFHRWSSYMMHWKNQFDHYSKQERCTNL

Sequence of Carboxylic ester hydrolase (Q9N1N9 whole entry): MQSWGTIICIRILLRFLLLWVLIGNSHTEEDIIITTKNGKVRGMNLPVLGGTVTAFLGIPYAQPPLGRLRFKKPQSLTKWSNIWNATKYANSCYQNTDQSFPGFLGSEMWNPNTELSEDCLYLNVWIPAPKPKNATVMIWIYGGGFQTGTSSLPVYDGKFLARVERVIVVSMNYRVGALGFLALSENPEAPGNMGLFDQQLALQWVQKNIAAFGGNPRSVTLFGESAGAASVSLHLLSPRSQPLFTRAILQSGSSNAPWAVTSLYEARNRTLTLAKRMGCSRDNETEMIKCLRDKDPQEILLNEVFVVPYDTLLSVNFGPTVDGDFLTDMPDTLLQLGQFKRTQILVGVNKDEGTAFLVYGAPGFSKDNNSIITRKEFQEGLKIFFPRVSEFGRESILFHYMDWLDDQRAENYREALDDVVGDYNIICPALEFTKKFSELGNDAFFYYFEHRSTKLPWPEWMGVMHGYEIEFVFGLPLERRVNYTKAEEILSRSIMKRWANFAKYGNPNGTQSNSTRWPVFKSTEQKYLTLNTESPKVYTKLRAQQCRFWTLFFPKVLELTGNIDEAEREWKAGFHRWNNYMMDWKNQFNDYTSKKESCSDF

SMILES	IC50 [1]	IC50 [2]
O=C(NC(=S)Nc1cccc(Cl)c1Cl)c1cc2ccccc2oc1=O [1-(2-Oxo-2H-chromene-3-carbonyl)-3-(2,3-dichlorophenyl)thiourea (2d)]	31.6 µM	1.13 µM
O=C(NC(=S)Nc1ccc(Cl)cc1Cl)c1cc2ccccc2oc1=O [1-(2-Oxo-2H-chromene-3-carbonyl)-3-(2,4-dichlorophenyl)thiourea (2h)]	13.2 µM	6.21 µM
O=C(NC(=S)Nc1ccccc1Cl)c1cc2ccccc2oc1=O [1-(2-Oxo-2H-chromene-3-carbonyl)-3-(2-chlorophenyl)thiourea (2g)]	11.1 µM	7.28 µM
COc1ccccc1NC(=S)NC(=O)c1cc2ccccc2oc1=O [1-(2-Oxo-2H-chromene-3-carbonyl)-3-(2-methoxyphenyl)thiourea (2b)]	0.06 µM	13.3 µM
O=C(NC(=S)Nc1ccccc1[N+](=O)[O-])c1cc2ccccc2oc1=O [1-(2-Oxo-2H-chromene-3-carbonyl)-3-(2-nitrophenyl)thiourea (2j)]	26.1 µM	0.23 µM
O=C(NC(=S)Nc1ccc(F)c(Cl)c1)c1cc2ccccc2oc1=O [1-(2-Oxo-2H-chromene-3-carbonyl)-3-(3-chloro-4-fluorophenyl)thiourea (2f)]	0.84 µM	0.75 µM
O=C(NC(=S)Nc1cccc(Cl)c1)c1cc2ccccc2oc1=O [1-(2-Oxo-2H-chromene-3-carbonyl)-3-(3-chlorophenyl)thiourea (2e)]	1.25 µM	0.04 µM
O=C(NC(=S)Nc1cccc(F)c1)c1cc2ccccc2oc1=O [1-(2-Oxo-2H-chromene-3-carbonyl)-3-(3-fluorophenyl)thiourea (2c)]	16.2 µM	17.2 µM
COc1cccc(NC(=S)NC(=O)c2cc3ccccc3oc2=O)c1 [1-(2-Oxo-2H-chromene-3-carbonyl)-3-(3-methoxyphenyl)thiourea (2k)]	53.2 µM	8.43 µM
Cc1cccc(NC(=S)NC(=O)c2cc3ccccc3oc2=O)c1 [1-(2-Oxo-2H-chromene-3-carbonyl)-3-(3-methylphenyl)thiourea (2a)]	2.15 µM	0.86 µM
O=C(NC(=S)Nc1ccc(Cl)cc1)c1cc2ccccc2oc1=O [1-(2-Oxo-2H-chromene-3-carbonyl)-3-(4-chlorophenyl)thiourea (2i)]	42.2 µM	5.1 µM
O=C(NC(=S)NC1CCCCC1)c1cc2ccccc2oc1=O [1-(2-Oxo-2H-chromene-3-carbonyl)-3-(cyclohexyl)thiourea (2l)]	12.2 µM	6.97 µM
